We go through 11 compounds from ChEMBL document CHEMBL4610029, “Essential structure of orexin 1 receptor antagonist YNT-707, part V: Structure-activity relationship study of the substituents on the 17-amino group” (Bioorg Med Chem Lett, 2020).

Each structure is given as a SMILES string. pKi: −log10 of the molar value.

One assay has as its target T1, Orexin/Hypocretin receptor type 1 (Homo sapiens, UniProt O43613).
T1 sequence (O43613 whole entry): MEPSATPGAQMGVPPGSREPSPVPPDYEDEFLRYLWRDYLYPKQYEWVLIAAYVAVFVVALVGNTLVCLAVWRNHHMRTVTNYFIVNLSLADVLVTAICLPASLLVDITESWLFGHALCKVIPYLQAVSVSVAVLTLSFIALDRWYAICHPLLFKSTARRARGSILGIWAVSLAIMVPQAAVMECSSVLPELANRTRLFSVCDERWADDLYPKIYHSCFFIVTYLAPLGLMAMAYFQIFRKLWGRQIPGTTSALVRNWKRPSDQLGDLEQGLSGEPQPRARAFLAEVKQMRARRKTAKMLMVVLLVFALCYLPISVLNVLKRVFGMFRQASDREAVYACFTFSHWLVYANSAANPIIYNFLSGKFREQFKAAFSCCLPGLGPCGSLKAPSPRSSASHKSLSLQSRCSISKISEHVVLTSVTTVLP
As to the kind of experiment: Antagonist activity at OX1R (unknown origin) assessed as inhibition of orexin A-induced intracellular Ca2+ release by cell-based assay. It counts as functional.
Details: not given; call rule not given here
For `COc1ccc2c3c1O[C@@H]1C3[C@@](O)(CC[C@H]1N(C)C(=O)/C=C/c1ccoc1)[C@H](NCC1CC1)C2` (stereo partly specified), the Ki result is “Not Active”.

The same assay, now with this note: read-out: Ki.
Usually pKi stands for the negative decadic logarithm of the Ki, by convention in mol/L. For `COc1ccc2c3c1O[C@@H]1C3[C@]3(CC[C@H]1N(C)C(=O)/C=C/c1ccoc1)OC(=O)N(CC1CC1)[C@@H]3C2` (stereo partly specified), the pKi is 6.27.

In the case of `COc1ccc2c3c1O[C@@H]1C3[C@@H](CC[C@H]1N(C)C(=O)/C=C/c1ccoc1)[C@H](N(C)S(=O)(=O)c1ccccc1)C2` (stereo partly specified), the pKi was 6.08.

For `COc1ccc2c3c1O[C@@H]1C3[C@@H](CC[C@H]1N(C)C(=O)/C=C/c1ccoc1)[C@H](NCC1CC1)C2` (stereo partly specified), the pKi was 6.41.

As for `COc1ccc2c3c1O[C@@H]1C3[C@@](O)(CC[C@H]1N(C)C(=O)/C=C/c1ccoc1)[C@H](N(CC1CC1)C(=O)c1ccccc1)C2` (stereo partly specified), the pKi was 6.56.

As to `COc1ccc2c3c1O[C@@H]1C3[C@@](O)(CC[C@H]1N(C)C(=O)/C=C/c1ccoc1)[C@H](N(CC1CC1)C(=O)C1CC1)C2` (stereo partly specified), the pKi is 5.96.

For `COc1ccc2c3c1O[C@@H]1C3[C@]3(CC[C@H]1N(C)C(=O)/C=C/c1ccoc1)OS(=O)(=O)N(CC1CC1)[C@@H]3C2` (stereo partly specified), the pKi is 5.92.

On to `COc1ccc2c3c1O[C@@H]1C3[C@@H](CC[C@H]1N(C)C(=O)/C=C/c1ccoc1)[C@H](N(C)CC1CC1)C2` (stereo partly specified), for which the pKi was 7.30.

As for `COc1ccc2c3c1O[C@@H]1C3[C@@](O)(CC[C@H]1N(C)C(=O)/C=C/c1ccoc1)[C@H](N(CC1CC1)C(=O)OC(C)(C)C)C2` (stereo partly specified), the pKi is 7.14.

Take `COc1ccc2c3c1O[C@@H]1C3[C@@H](CC[C@H]1N(C)C(=O)/C=C/c1ccoc1)[C@H](N(CC1CC1)C(=O)OC(C)(C)C)C2` (stereo partly specified): the pKi is 7.83.

The target of a further assay is T2, Orexin/Hypocretin receptor type 1 (Homo sapiens) (UniProt O43613).
T2 sequence (whole entry): T1 sequence (O43613 whole entry)
The assay is described as follows: Antagonist activity at OX1R (unknown origin) assessed as inhibition of orexin A-induced intracellular Ca2+ release at 10 uM by cell-based assay relative to control. It counts as functional.
Details: not given
Broadly, the inhibition is the share of the control response that was lost under treatment. Regarding `COc1ccc2c3c1O[C@@H]1C3[C@@](O)(CC[C@H]1N(C)C(=O)/C=C/c1ccoc1)[C@H](N(CC1CC1)C(C)=O)C2` (stereo partly specified), the inhibition turned out to be 48%.
